Counter-ions that a name gives are not always drawn.
conditions: bovine, in vivo, im, 5 mg/kg
Description: The terminal half-lives (t1/2) after single injection (i.m.) of 5 mg of betaine VI (n=2) per kg of body weight for cattle are summarized in Table 1 for compounds according to the invention. […] The known salts sulfate and dihydroiodide from DE 3 706 020 are used as a standard.

Terminal half-lives (t1/2) [h]	Compound
9.96	CO/N=C(\C(=O)N[C@@H]1C(=O)N2C(C(=O)[O-])=C(C[n+]3cccc4c3CCCC4)CS[C@H]12)c1csc(N)n1 [Example 21]
2.15	CO/N=C(\C(=O)N[C@@H]1C(=O)N2C(C(=O)[O-])=C(C[n+]3cccc4c3CCCC4)CS[C@H]12)c1csc(N)n1 [Sulfate, cefquinome sulfate, reference compound]
12.70	CO/N=C(\C(=O)N[C@@H]1C(=O)N2C(C(=O)[O-])=C(C[n+]3cccc4c3CCCC4)CS[C@H]12)c1csc(N)n1 [Example 23]
9.39	CO/N=C(\C(=O)N[C@@H]1C(=O)N2C(C(=O)[O-])=C(C[n+]3cccc4c3CCCC4)CS[C@H]12)c1csc(N)n1 [Example 20]
13.00	CO/N=C(\C(=O)N[C@@H]1C(=O)N2C(C(=O)[O-])=C(C[n+]3cccc4c3CCCC4)CS[C@H]12)c1csc(N)n1 [Example 18]
8.77	CO/N=C(\C(=O)N[C@@H]1C(=O)N2C(C(=O)[O-])=C(C[n+]3cccc4c3CCCC4)CS[C@H]12)c1csc(N)n1 [Example 22]
7.07	CO/N=C(\C(=O)N[C@@H]1C(=O)N2C(C(=O)[O-])=C(C[n+]3cccc4c3CCCC4)CS[C@H]12)c1csc(N)n1 [Example 19]
4.19	CO/N=C(\C(=O)N[C@@H]1C(=O)N2C(C(=O)[O-])=C(C[n+]3cccc4c3CCCC4)CS[C@H]12)c1csc(N)n1 [Dihydroiodide, reference compound]

Continued, molecule first:

Compound	Terminal half-lives (t1/2) [h]
CO/N=C(\C(=O)N[C@@H]1C(=O)N2C(C(=O)[O-])=C(C[n+]3cccc4c3CCCC4)CS[C@H]12)c1csc(N)n1 [Example 2]	18.8
CO/N=C(\C(=O)N[C@@H]1C(=O)N2C(C(=O)[O-])=C(C[n+]3cccc4c3CCCC4)CS[C@H]12)c1csc(N)n1 [Example 15]	11.1
CO/N=C(\C(=O)N[C@@H]1C(=O)N2C(C(=O)[O-])=C(C[n+]3cccc4c3CCCC4)CS[C@H]12)c1csc(N)n1 [Example 11, cefquinome-2,4-dihydroxybenzoate]	16.20
CO/N=C(\C(=O)N[C@@H]1C(=O)N2C(C(=O)[O-])=C(C[n+]3cccc4c3CCCC4)CS[C@H]12)c1csc(N)n1 [Example 6]	5.87
CO/N=C(\C(=O)N[C@@H]1C(=O)N2C(C(=O)[O-])=C(C[n+]3cccc4c3CCCC4)CS[C@H]12)c1csc(N)n1 [Example 13]	9.21
CO/N=C(\C(=O)N[C@@H]1C(=O)N2C(C(=O)[O-])=C(C[n+]3cccc4c3CCCC4)CS[C@H]12)c1csc(N)n1 [Example 16]	9.16
CO/N=C(\C(=O)N[C@@H]1C(=O)N2C(C(=O)[O-])=C(C[n+]3cccc4c3CCCC4)CS[C@H]12)c1csc(N)n1 [Example 17]	17.8
CO/N=C(\C(=O)N[C@@H]1C(=O)N2C(C(=O)[O-])=C(C[n+]3cccc4c3CCCC4)CS[C@H]12)c1csc(N)n1 [Example 1, Cefquinome-6-hydroxy-1-naphthoate]	9.20
CO/N=C(\C(=O)N[C@@H]1C(=O)N2C(C(=O)[O-])=C(C[n+]3cccc4c3CCCC4)CS[C@H]12)c1csc(N)n1 [Example 9]	15.6
CO/N=C(\C(=O)N[C@@H]1C(=O)N2C(C(=O)[O-])=C(C[n+]3cccc4c3CCCC4)CS[C@H]12)c1csc(N)n1 [Example 12]	15.20

— patent US5747484A, “Crystalline cepham acid addition salts and processes for their preparation” (Hoechst Aktiengesellschaft, priority 1994, dated 1998)
